Laboratory results from patent US20260356830A1, “COMPOUNDS FOR MODULATING RET PROTEIN” (Bristol-Myers Squibb Company, priority 2022, published 2026).

Molecular target: T1, CCDC6-RET (Homo sapiens, UniProt P07949+Q16204+Q96SW2)
T1 construct: CCDC6 (natural N-terminal fusion partner, UniProt Q16204); endogenous in cells; host or cells: TPC-1 (parental, papillary thyroid carcinoma)
Experiment: Cellular RET degradation, AlphaLISA, TPC-1 cell line
Assay type: cell-based
Settings: for Dmax: TPC1, human, 24 h, read-out: Cell Density TPC-1/CCDC6-RET Ymax %; for DC50: read-out: Cell Density TPC-1/CCDC6-RET DC50, half-maximal degradation concentration, TPC-1 (CCDC6-RET), 24 hrs
In short: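 Luminescent AlphaLISA read of RET abundance in lysates after 24 h compound exposure (37 °C, 2% FBS DMEM) of CCDC6-RET-bearing TPC-1 cells. % degradation relative to DMSO (high) and media (low) controls, fitted to 4-parameter logistic curve for DC50 and Ymax.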

T1 sequence (Q16204+P07949 fused): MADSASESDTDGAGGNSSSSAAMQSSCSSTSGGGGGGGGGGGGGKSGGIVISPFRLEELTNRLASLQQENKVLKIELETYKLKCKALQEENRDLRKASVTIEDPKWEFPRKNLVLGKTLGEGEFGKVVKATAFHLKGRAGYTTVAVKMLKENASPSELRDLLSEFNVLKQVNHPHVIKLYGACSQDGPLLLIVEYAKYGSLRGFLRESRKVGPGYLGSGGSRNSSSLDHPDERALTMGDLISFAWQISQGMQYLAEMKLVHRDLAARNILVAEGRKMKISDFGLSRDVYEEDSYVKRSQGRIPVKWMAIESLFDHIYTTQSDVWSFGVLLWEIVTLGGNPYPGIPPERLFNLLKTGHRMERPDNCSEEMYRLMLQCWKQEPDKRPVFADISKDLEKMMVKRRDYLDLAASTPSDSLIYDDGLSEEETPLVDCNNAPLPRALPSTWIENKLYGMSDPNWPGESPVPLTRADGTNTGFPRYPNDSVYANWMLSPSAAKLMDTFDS
T1 sequence (Q96SW2 whole entry, the tested form may be a part): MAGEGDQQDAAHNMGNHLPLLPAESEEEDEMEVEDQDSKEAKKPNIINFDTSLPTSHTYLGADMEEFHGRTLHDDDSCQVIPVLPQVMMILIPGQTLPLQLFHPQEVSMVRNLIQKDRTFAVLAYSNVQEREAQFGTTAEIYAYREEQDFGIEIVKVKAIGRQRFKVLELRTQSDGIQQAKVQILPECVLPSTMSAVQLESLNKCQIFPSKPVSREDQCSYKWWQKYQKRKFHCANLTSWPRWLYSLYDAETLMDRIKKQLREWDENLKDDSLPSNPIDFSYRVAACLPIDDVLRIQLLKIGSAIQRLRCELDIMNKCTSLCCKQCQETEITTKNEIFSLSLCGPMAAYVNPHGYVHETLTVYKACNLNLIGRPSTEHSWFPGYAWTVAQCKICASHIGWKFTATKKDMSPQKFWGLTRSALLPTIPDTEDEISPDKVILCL
T1 sequence (Q16531 whole entry partner, the tested form may be a part): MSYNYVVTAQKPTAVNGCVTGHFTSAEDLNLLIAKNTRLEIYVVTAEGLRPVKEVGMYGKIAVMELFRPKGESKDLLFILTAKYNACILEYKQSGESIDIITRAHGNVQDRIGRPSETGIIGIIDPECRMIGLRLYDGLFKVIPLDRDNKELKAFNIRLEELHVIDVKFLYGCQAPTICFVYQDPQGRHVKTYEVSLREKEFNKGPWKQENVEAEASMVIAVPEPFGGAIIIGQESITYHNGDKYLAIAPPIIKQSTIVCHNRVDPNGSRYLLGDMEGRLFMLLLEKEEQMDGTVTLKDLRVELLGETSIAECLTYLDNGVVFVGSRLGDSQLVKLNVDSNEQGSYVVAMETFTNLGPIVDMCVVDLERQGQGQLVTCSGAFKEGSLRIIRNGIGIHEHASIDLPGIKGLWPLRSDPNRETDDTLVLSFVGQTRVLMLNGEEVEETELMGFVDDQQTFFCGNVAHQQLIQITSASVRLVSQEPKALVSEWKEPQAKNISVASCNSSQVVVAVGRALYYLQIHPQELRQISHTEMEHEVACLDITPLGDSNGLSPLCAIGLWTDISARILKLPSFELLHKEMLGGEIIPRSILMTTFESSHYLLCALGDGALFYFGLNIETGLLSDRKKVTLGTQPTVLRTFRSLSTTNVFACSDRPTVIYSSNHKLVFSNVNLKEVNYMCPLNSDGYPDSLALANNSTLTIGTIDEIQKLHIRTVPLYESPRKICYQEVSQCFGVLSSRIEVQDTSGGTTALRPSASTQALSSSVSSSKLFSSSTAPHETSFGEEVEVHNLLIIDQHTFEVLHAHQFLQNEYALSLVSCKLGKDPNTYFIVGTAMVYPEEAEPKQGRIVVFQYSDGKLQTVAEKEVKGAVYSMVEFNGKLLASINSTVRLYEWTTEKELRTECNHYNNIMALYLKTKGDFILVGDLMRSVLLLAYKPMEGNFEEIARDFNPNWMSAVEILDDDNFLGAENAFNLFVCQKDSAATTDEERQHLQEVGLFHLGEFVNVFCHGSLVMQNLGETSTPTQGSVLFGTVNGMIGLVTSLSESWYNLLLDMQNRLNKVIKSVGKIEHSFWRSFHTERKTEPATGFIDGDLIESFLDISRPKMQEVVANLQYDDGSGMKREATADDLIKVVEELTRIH

SMILES	Dmax [%]	DC50 [nM]
CCOc1cc(-c2ccc(N3CCC(CN4CCN(CC5CCN(C(=O)Cc6ccc7c(c6)C(=O)N(C6CCC(=O)NC6=O)C7)CC5)CC4)(NC(=O)c4cc(F)ccc4F)CC3)nc2)c2c(C#N)cnn2c1 (stereo not drawn) [Example 113, N-[1-(5-{3-cyano-6-ethoxypyrazolo[1,5-a]pyridin-4-yl}pyridin-2-yl)-4-({4-[(1-{2-[2-(2,6-dioxopiperidin-3-yl)-3-oxo-2,3-dihydro-1H-isoindol-5-yl]acetyl}piperidin-4-yl)methyl]piperazin-1-yl}methyl)piperidin-4-yl]-2,5-difluorobenzamide]	> 90	< 2
CCOc1cc(-c2ccc(N3CCC(CN(C(=O)CCCCCCN4CCN(c5ccc6c(c5)C(=O)N(C5CCC(=O)NC5=O)C6)CC4)C(C)C)(NC(=O)c4cc(F)ccc4F)CC3)nc2)c2c(C#N)cnn2c1 (stereo not drawn) [Example 169, N-[1-(5-{3-cyano-6-ethoxypyrazolo[1,5-a]pyridin-4-yl}pyridin-2-yl)-4-[(7-{4-[2-(2,6-dioxopiperidin-3-yl)-3-oxo-2,3-dihydro-1H-isoindol-5-yl]piperazin-1-yl}-N-(propan-2-yl)heptanamido)methyl]piperidin-4-yl]-2,5-difluorobenzamide]	60 to 90	10 to 100
CCOc1cc(-c2ccc(N3CCC(CN4CCN(C5CC6(CC(C(=O)N7CCC(c8ccc9c(c8)CN(C8CCC(=O)NC8=O)C9=O)CC7)C6)C5)CC4)(NC(=O)c4cc(F)ccc4F)CC3)nc2)c2c(C#N)cnn2c1 (stereo not drawn) [Example 95, N-[1-(5-{3-cyano-6-ethoxypyrazolo[1,5-a]pyridin-4-yl}pyridin-2-yl)-4-{[4-(6-{4-[2-(2,6-dioxopiperidin-3-yl)-1-oxo-2,3-dihydro-1H-isoindol-5-yl]piperidine-1-carbonyl}spiro[3.3]heptan-2-yl)piperazin-1-yl]methyl}piperidin-4-yl]-2,5-difluorobenzamide]	60 to 90	2 to 10
CCOc1cc(-c2ccc(N3CCC(CN4CCN(C(=O)CN5CCC(c6ccc7c(N8CCC(=O)NC8=O)nn(C)c7c6)CC5)CC4)(NC(=O)c4cc(F)ccc4F)CC3)nc2)c2c(C#N)cnn2c1 [Example 44, N-(1-(5-(3-cyano-6-ethoxypyrazolo[1,5-a]pyridin-4-yl)pyridin-2-yl)-4-((4-(2-(4-(3-(2,4-dioxotetrahydropyrimidin-1(2H)-yl)-1-methyl-1H-indazol-6-yl)piperidin-1-yl)acetyl)piperazin-1-yl)methyl)piperidin-4-yl)-2,5-difluorobenzamide]	60 to 90	< 2
CCOc1cc(-c2ccc(N3CCC(CN4CCN(C(=O)CCCCCCN5CCN(c6ccc7c(c6)C(=O)N(C6CCC(=O)NC6=O)C7)CC5)CC4)(NC(=O)c4cc(F)ccc4F)CC3)nc2)c2c(C#N)cnn2c1 (stereo not drawn) [Example 16, N-[1-(5-{3-cyano-6-ethoxypyrazolo[1,5-a]pyridin-4-yl}pyridin-2-yl)-4-{[4-(7-{4-[2-(2,6-dioxopiperidin-3-yl)-3-oxo-2,3-dihydro-1H-isoindol-5-yl]piperazin-1-yl}heptanoyl)piperazin-1-yl]methyl}piperidin-4-yl]-2,5-difluorobenzamide]	> 90	2 to 10

More lines, now with the values ahead:

Dmax [%]	DC50 [nM]	SMILES
> 90	2 to 10	CCOc1cc(-c2ccc(N3CCC(NC(=O)c4cc(F)ccc4F)(C(=O)NCCCCCCN4CCC(c5ccc6c(c5)CN(C5CCC(=O)NC5=O)C6=O)CC4)CC3)nc2)c2c(C#N)cnn2c1 (stereo not drawn) [Example 157, 1-(5-{3-cyano-6-ethoxypyrazolo[1,5-a]pyridin-4-yl}pyridin-2-yl)-4-(2,5-difluorobenzamido)-N-(6-{4-[2-(2,6-dioxopiperidin-3-yl)-1-oxo-2,3-dihydro-1H-isoindol-5-yl]piperidin-1-yl}hexyl)piperidine-4-carboxamide]
60 to 90	2 to 10	CCOc1cc(-c2ccc(N3CCC(COCc4cn(CCCN5CCN(c6ccc7c(c6)CN(C6CCC(=O)NC6=O)C7=O)CC5)nn4)(NC(=O)c4cc(F)ccc4F)CC3)nc2)c2c(C#N)cnn2c1 (stereo not drawn) [Example 50, N-(1-(5-(3-cyano-6-ethoxypyrazolo[1,5-a]pyridin-4-yl)pyridin-2-yl)-4-(((1-(3-(4-(2-(2,6-dioxopiperidin-3-yl)-1-oxoisoindolin-5-yl)piperazin-1-yl)propyl)-1H-1,2,3-triazol-4-yl)methoxy)methyl)piperidin-4-yl)-2,5-difluorobenzamide]
60 to 90	2 to 10	CCOc1cc(-c2ccc(N3CCC(NC(=O)c4cc(F)ccc4F)(C(=O)NCCN4CCC(c5ccc6c(c5)CN(C5CCC(=O)NC5=O)C6=O)CC4)CC3)nc2)c2c(C#N)cnn2c1 (stereo not drawn) [Example 156, 1-(5-{3-cyano-6-ethoxypyrazolo[1,5-a]pyridin-4-yl}pyridin-2-yl)-4-(2,5-difluorobenzamido)-N-(2-{4-[2-(2,6-dioxopiperidin-3-yl)-1-oxo-2,3-dihydro-1H-isoindol-5-yl]piperidin-1-yl}ethyl)piperidine-4-carboxamide]
> 90	2 to 10	CCOc1cc(-c2ccc(N3CCC(CN4CCC5(CC4)CCN(C(=O)Cc4ccc6c(c4)CN(C4CCC(=O)NC4=O)C6=O)CC5)(NC(=O)c4cc(F)ccc4F)CC3)nc2)c2c(C#N)cnn2c1 (stereo not drawn) [Example 98, N-[1-(5-{3-cyano-6-ethoxypyrazolo[1,5-a]pyridin-4-yl}pyridin-2-yl)-4-[(9-{2-[2-(2,6-dioxopiperidin-3-yl)-1-oxo-2,3-dihydro-1H-isoindol-5-yl]acetyl}-3,9-diazaspiro[5.5]undecan-3-yl)methyl]piperidin-4-yl]-2,5-difluorobenzamide]
> 90	< 2	CCOc1cc(-c2ccc(N3CCC(CN4CCN(C(=O)C5CC6(C5)CC(C(=O)N5CCN(c7ccc8c(c7)C(=O)N(C7CCC(=O)NC7=O)C8)CC5)C6)CC4)(NC(=O)c4cc(F)ccc4F)CC3)nc2)c2c(C#N)cnn2c1 (stereo not drawn) [Example 86, N-[1-(5-{3-cyano-6-ethoxypyrazolo[1,5-a]pyridin-4-yl}pyridin-2-yl)-4-{[4-(6-{4-[2-(2,6-dioxopiperidin-3-yl)-3-oxo-2,3-dihydro-1H-isoindol-5-yl]piperazine-1-carbonyl}spiro[3.3]heptane-2-carbonyl)piperazin-1-yl]methyl}piperidin-4-yl]-2,5-difluorobenzamide]
60 to 90	2 to 10	CCOc1cc(-c2ccc(N3CCC(CN4CCN(C5CN(C(=O)c6ccc7c(c6)CN(C6CCC(=O)NC6=O)C7=O)C5)CC4)(NC(=O)c4cc(F)ccc4F)CC3)nc2)c2c(C#N)cnn2c1 (stereo not drawn) [Example 63, N-[1-(5-{3-cyano-6-ethoxypyrazolo[1,5-a]pyridin-4-yl}pyridin-2-yl)-4-[(4-{1-[2-(2,6-dioxopiperidin-3-yl)-1-oxo-2,3-dihydro-1H-isoindole-5-carbonyl]azetidin-3-yl}piperazin-1-yl)methyl]piperidin-4-yl]-2,5-difluorobenzamide]
60 to 90	2 to 10	CCOc1cc(-c2ccc(N3CCC(CN4CCN(C(=O)CCN5CCC(Oc6ccc7c(c6)CN(C6CCC(=O)NC6=O)C7=O)CC5)CC4)(NC(=O)c4cc(F)ccc4F)CC3)nc2)c2c(C#N)cnn2c1 (stereo not drawn) [Example 118, N-[1-(5-{3-cyano-6-ethoxypyrazolo[1,5-a]pyridin-4-yl}pyridin-2-yl)-4-({4-[3-(4-{[2-(2,6-dioxopiperidin-3-yl)-1-oxo-2,3-dihydro-1H-isoindol-5-yl]oxy}piperidin-1-yl)propanoyl]piperazin-1-yl}methyl)piperidin-4-yl]-2,5-difluorobenzamide]
